Test results published in patent publication US20110294698A1, “PROCESS FOR IDENTIFYING DRUGS FOR TREATING GASTROESOPHAGEAL REFLUX” (Temple University of the Commonwealth System of Higher …, priority 2008, published 2011).
“Also recorded” adds a separate entry of the source. Like-named read-outs stand apart in the source and are kept apart here.

Legend:
[1] = test system: human clasp fibers; test: carbachol induced contraction and relaxation of muscle strips, with potential inhibitors of relaxation; assay type: cell-based; conditions: for inhibition of carbachol induced relaxation: mecamylamine 10 μM, hexamethonium 100 μM, L-NAME 50 μM
[2] = test system: human LEC fibers; test: as above; assay type: cell-based; conditions: for inhibition of carbachol induced relaxation: mecamylamine 10 μM, hexamethonium 100 μM, L-NAME 50 μM
[3] = test system: human sling fibers; test: nicotine or choline induced relaxation of bethanechol pre-contracted muscle strips; assay type: cell-based
[4] = test system: pig clasp fibers; assay type: cell-based
[5] = test system: gastroesophageal junction high-pressure zone; set-up: species or system human; conditions: in vivo, iv
[6] = test system: gastroesophageal junction high-pressure zone; conditions: in vivo; cited from earlier work
[7] = test system: human clasp fibers; test: bethanechol induced contraction of muscle strips, with or without antagonist (Schild analysis); assay type: cell-based
[8] = test system: human sling fibers; test: as above; assay type: cell-based
[9] = test system: human LEC fibers; test: as above; assay type: cell-based
[10] = test system: human MEC fibers; test: as above; assay type: cell-based
[11] = test system: human MEL fibers; test: as above; assay type: cell-based
[12] = target: M3 receptor (Homo sapiens, UniProt P20309); conditions: cited from earlier work
[13] = target: T1, M2 receptor (Homo sapiens, UniProt P08172); conditions: published value; cited from earlier work
T1 sequence (P08172 1-466): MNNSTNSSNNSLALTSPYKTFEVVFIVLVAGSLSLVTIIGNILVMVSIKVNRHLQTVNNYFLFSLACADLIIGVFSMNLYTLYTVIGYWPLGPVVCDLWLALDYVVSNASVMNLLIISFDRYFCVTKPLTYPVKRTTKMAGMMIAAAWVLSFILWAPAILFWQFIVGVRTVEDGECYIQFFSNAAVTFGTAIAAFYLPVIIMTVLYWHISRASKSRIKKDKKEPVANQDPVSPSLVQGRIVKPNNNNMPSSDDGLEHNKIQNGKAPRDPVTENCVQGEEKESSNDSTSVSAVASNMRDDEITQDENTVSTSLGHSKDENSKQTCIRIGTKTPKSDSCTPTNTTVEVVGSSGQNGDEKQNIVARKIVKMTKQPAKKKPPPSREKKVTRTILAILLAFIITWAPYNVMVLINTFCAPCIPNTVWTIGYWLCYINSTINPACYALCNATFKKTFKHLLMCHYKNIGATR

[14] = test system: human sling fibers; test: carbachol induced contraction and relaxation of muscle strips, with potential inhibitors of relaxation; assay type: cell-based; conditions: for inhibition of carbachol induced relaxation: mecamylamine 10 μM, hexamethonium 100 μM
[15] = test system: human MEC fibers; test: carbachol cumulative concentration response of muscle strips; assay type: cell-based
Text: (§1) Beginning at the cardiac notch, the sling fiber complex was separated from the underlying submucosa by sharp dissection and this tissue plane was followed completely around the lesser curvature thus separating the clasp fibers from underlying submucosa. The clasp fiber complex was removed from the sling fiber complex by sharp dissection and cut into 10-12 smooth muscle strips approximately 3×3×8 mm with the long axis parallel to the direction of the muscle fibers. Similar muscle strips were cut from the middle of the sling fiber complex such that these strips were derived from the sling fibers in the cardiac notch. These smooth muscle strips were suspended in 10 ml muscle baths between platinum electrodes in Tyrode's solution continuously bubbled with 95% O2/5% CO2 and maintained at 37° C. The muscle strips were stretched to approximately 150% of their slack length which produced approximately 1 gram of basal tension and were then allowed to accommodate to the muscle bath for at least 60 minutes prior to investigation of contractile response.
(§2) Representative traces of the contractile response to 120 mM KCl in isotonic Tyrode's solution followed by a wash and 60 minute re-equilibration period then a cumulative concentration response curve to the selective muscarinic receptor agonist bethanechol (left) or the muscarinic and nicotinic agonist carbachol (right) is shown in FIG. 11. […]

[16] = test system: human MEL fibers; test: as above; assay type: cell-based
Text: as §1, §2

[17] = test system: human clasp fibers; test: nicotine or choline induced relaxation of bethanechol pre-contracted muscle strips; assay type: cell-based
[18] = test system: human LEC fibers; test: as above; assay type: cell-based
[19] = inhibitor 30 min, then carbachol rechallenge, others as in Table 6
[20] = mean ± SEM, read-out: BETH pEC50 (bethanechol potency) (converted)
[21] = Barrett's esophagitis donors vs no GERD history
[22] = cumulative concentration response

Chain of M3 receptor (P20309 whole entry): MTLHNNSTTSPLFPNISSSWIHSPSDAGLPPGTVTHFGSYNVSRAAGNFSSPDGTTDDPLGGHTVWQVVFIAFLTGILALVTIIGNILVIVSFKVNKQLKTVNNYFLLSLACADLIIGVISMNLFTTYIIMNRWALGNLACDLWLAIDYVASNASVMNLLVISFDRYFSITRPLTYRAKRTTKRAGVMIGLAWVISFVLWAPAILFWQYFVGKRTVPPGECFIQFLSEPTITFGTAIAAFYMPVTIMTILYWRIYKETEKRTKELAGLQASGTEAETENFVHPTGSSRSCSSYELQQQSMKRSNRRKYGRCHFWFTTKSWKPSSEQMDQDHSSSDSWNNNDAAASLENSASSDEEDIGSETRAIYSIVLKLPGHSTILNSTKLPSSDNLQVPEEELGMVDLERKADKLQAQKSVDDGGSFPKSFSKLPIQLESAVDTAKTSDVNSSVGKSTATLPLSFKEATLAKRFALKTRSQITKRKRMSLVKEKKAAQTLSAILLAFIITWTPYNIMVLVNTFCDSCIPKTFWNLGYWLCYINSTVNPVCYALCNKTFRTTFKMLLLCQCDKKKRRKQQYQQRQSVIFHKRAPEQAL

COC(=O)[C@@H](N)CCCNC(=N)N[N+](=O)[O-] [L-NAME]
inhibition of carbachol induced relaxation ([1]; […], others as in Table 6): inhibited
inhibition of carbachol induced relaxation ([2]; […]): inhibited
inhibition of nicotine induced relaxation [3]: inhibited

CC[N+](CC)(CC)CCOc1ccc(/C=C/c2ccccc2)cc1 [MG624]
inhibition of carbachol induced relaxation [1, 19]: blocked

CCCCCCCCCC[n+]1cccc([C@@H]2CCCN2C)c1.[I-] [NDNI]
inhibition of carbachol induced relaxation ([1]; […], others as in Table 6): blocked

CC(=O)OCC[N+](C)(C)C [acetylcholine]
concentration above which abrupt relaxations were produced ([4]; acetylcholine with physostigmine to block cholinesterase): higher than 30 uM

CN1[C@@H]2CC[C@H]1C[C@@H](OC(=O)C(CO)c1ccccc1)C2 (stereo partly drawn) [atropine]
effect on the pressure profile generated by placement of the plications [5]: abolished
effect on the resting sphincteric pressure [6]: dose-dependent partial suppression

CC(C[N+](C)(C)C)OC(N)=O (stereo not drawn) [bethanechol]
BETH MAX (maximal tension) ([7]; mean ± SEM): 1.20 ± 0.17 (n = 14) b d
EC50 [7, 20]: 1.58 µM
BETH MAX (maximal tension) ([8]; mean ± SEM): 2.18 ± 0.24 (n = 37) c d e
EC50 [8, 20]: 10.5 µM
BETH MAX (maximal tension) ([9]; mean ± SEM): 0.92 ± 0.09 (n = 29)
EC50 [9, 20]: 6.46 µM
BETH MAX (maximal tension) ([10]; mean ± SEM): 0.79 ± 0.07 (n = 24) e
EC50 [10, 20]: 45.7 µM
BETH MAX (maximal tension) ([11]; mean ± SEM): 1.37 ± 0.21 (n = 10)
EC50 [11, 20]: 15.8 µM
KA (agonist dissociation constant) for M3 ([12]; published value): 110 µM
KA (agonist dissociation constant) for M2 [13]: 170 µM

C[N+](C)(C)CCOC(N)=O [carbachol]
maximal contractile response to carbachol, definite GERD [1, 21]: decreased
carbachol induced relaxations, probable and definite GERD ([1]; carbachol higher than 100 μM): decreased
concentration above which abrupt relaxations were produced ([1]; increasing carbachol concentrations (Example 9)): higher than 30 uM
relaxation response to high carbachol concentration as a percentage of the maximal contractile response ([1]; mean±sem): 131±6%
carbachol-induced relaxations with high concentrations of carbachol, donors with GERD compared to non-GERD controls ([1]; p<0.05): significantly lower
maximal carbachol induced contraction, donors with GERD compared to non-GERD donors ([1]; p<0.05): significantly lower
carbachol induced relaxation, GERD compared to non-GERD controls [14]: no difference
carbachol induced relaxations, definite GERD ([14]; carbachol higher than 100 μM): greater
carbachol concentration at which relaxation response is observed [14, 22]: ≥ 300 µM
relaxation response to high carbachol concentration as a percentage of the maximal contractile response ([14]; mean±sem): 29±4%
maximal carbachol induced contraction, donors with GERD compared to donors without GERD ([14]; p<0.05): greater
contractility to carbachol, definite and probable GERD ([14]; vs no GERD history): increased
maximal contractile response to carbachol, definite GERD [2, 21]: decreased
carbachol induced relaxations, probable and definite GERD ([2]; carbachol higher than 100 μM): higher
carbachol concentration at which relaxation response is observed [2, 22]: ≥ 300 µM
relaxation response to high carbachol concentration as a percentage of the maximal contractile response ([2]; mean±sem): 54±9%
abrupt relaxation response to high carbachol concentrations [15]: not observed
abrupt relaxation response to high carbachol concentrations [16]: not observed

C[N+](C)(C)CCCCCCCCCC[N+](C)(C)C [decamethonium]
inhibition of carbachol induced relaxation ([1]; […], others as in Table 6): inhibited
inhibition of carbachol induced relaxation ([14]; […], others as in Table 6): inhibit

C[N+](C)(C)CCCCCC[N+](C)(C)C [hexamethonium]
inhibition of carbachol induced relaxation ([14]; […], others as in Table 6): did not
inhibition of carbachol induced relaxation ([14]; […], others as in Table 6, listed as HEX): inhibit
inhibition of carbachol induced relaxation ([2]; […]): did not

CNC1(C)C2CCC(C2)C1(C)C (stereo not drawn) [mecamylamine]
inhibition of carbachol induced relaxation [1, 19]: inhibited; also recorded: blocked; also recorded: only partially effective
inhibition of carbachol induced relaxation [14, 19]: inhibited
inhibition of carbachol induced relaxation ([14]; inhibitor 30 min, then carbachol rechallenge, others as in Table 6, listed as MEC): inhibit
inhibition of carbachol induced relaxation ([2]; inhibitor 30 min, then carbachol rechallenge): inhibited
inhibition of nicotine induced relaxation ([17]; human clasp fibers, 30 μM bethanechol then 1 mM nicotine, MLA 10 nM, MECA 10 μM): significantly inhibited
inhibition of nicotine induced relaxation ([3]; human sling fibers, 30 μM bethanechol then 1 mM nicotine, MLA 10 nM, MECA 10 μM): significantly inhibited
inhibition of nicotine induced relaxation ([18]; human LEC fibers, 30 μM bethanechol then 1 mM nicotine, MLA 10 nM, MECA 10 μM): significantly inhibited

COc1ccccc1CNCCCCCCNCCCCCCCCNCCCCCCNCc1ccccc1OC [methoctramine]
potency (pA2) to inhibit bethanechol induced contraction [7]: 6.3±0.2
potency (pA2) to inhibit bethanechol induced contraction [8]: 6.8±0.2
potency (pA2) to inhibit bethanechol induced contraction [9]: 6.2±0.2
potency (pA2) to inhibit bethanechol induced contraction [10]: 5.7±0.2
potency (pA2) to inhibit bethanechol induced contraction [11]: 5.6±0.3
pKB M3 ([12]; published affinity value): 6.6

CCN1C[C@]2(COC(=O)c3ccccc3N3C(=O)C[C@H](C)C3=O)CC[C@H](OC)[C@@]34[C@@H]5C[C@H]6[C@H](OC)[C@@H]5[C@](O)(C[C@@H]6OC)[C@@](O)([C@@H](OC)[C@H]23)[C@@H]14 [methyllycaconitine]
inhibition of carbachol induced relaxation ([1]; […], others as in Table 6): did not
inhibition of carbachol induced relaxation ([1]; […], others as in Table 6, listed as methyllycaconotine): ineffective
inhibition of nicotine induced relaxation [17]: no inhibitory effect
inhibition of nicotine induced relaxation [3]: no inhibitory effect
inhibition of nicotine induced relaxation [18]: no inhibitory effect

CN1CCCC1c1cccnc1 (stereo not drawn) [nicotine]
nicotine induced relaxation of bethanechol pre-contracted fibers ([17]; human clasp fibers): relax
nicotine induced relaxation of bethanechol pre-contracted fibers ([3]; human sling fibers, 30 μM bethanechol, 100 μM nicotine): relax; also recorded: induces a relaxation
nicotine induced relaxation of bethanechol pre-contracted fibers ([18]; human LEC fibers): relax

CC(=O)O[C@H]1C[C@@H]2CC[C@@H]3[C@H](CC[C@@]4(C)[C@H]3C[C@H]([N+]3(C)CCCCC3)[C@@H]4OC(C)=O)[C@@]2(C)C[C@@H]1[N+]1(C)CCCCC1 [pancuronium]
inhibition of cholinergic agonist induced relaxation ([4]; […], 1E−5 molar): inhibited

CC(C)NCC(O)COc1cccc2ccccc12 (stereo not drawn) [propranolol]
inhibition of nicotine induced relaxation ([3]; human sling fibers, 30 μM bethanechol then 100 μM nicotine, inhibitor 30 min): inhibited

NC1=N[C@H](O)[C@H]2[C@H]3O[C@]4(O)O[C@@H]([C@@H](O)[C@@]2(N1)[C@@H]4O)[C@]3(O)CO [tetrodotoxin]
inhibition of nicotine induced relaxation [3]: reduced the relaxation but not completely

COc1cc2c3cc1Oc1cc(ccc1O)C[C@@H]1c4c(cc(OC)c(O)c4Oc4ccc(cc4)C[C@@H]3N(C)CC2)CC[N+]1(C)C [tubocurarine]
inhibition of carbachol induced relaxation ([1]; […], others as in Table 6): inhibited
inhibition of carbachol induced relaxation ([14]; […], others as in Table 6): inhibit
